Results: patent US9763957B2, “Autotaxin inhibitors” (Novartis AG, priority 2013, dated 2017)

These molecules were tested against Recombinant human ATX (Homo sapiens (Human), UniProt Q13822) (assay: ATX inhibition assay (choline release, Amplex Red fluorescence)). Conditions: ATX 10 nM, LPC 18:1 10 μM, 37° C., 20 min pre-incubation; mean of n≧2.
Type: biochemical
Outline: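 Activity was taken from the slope of resorufin fluorescence (530/590 nm, read every 2 min for 40 min at 37 °C) produced by choline liberated from 10 μM oleoyl LPC.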

Compound	IC50 [nM]
Cc1nnn(Cc2cc(C(F)F)ccc2/C=C/C(=O)N2CCC(Cc3nnc(C)o3)CC2)n1 [Example 59, (E)-3-(4-(Difluoromethyl)-2-((5-methyl-2H-tetrazol-2-yl)methyl)phenyl)-1-(4-((5-methyl-1,3,4-oxadiazol-2-yl)methyl)piperidin-1-yl)prop-2-en-1-one]	21
Cc1nnc(CC2CCN(C(=O)/C=C/c3ccc(Cl)cc3Cn3nccn3)CC2)o1 [Example 75, (E)-3-(2-((2H-1,2,3-Triazol-2-yl)methyl)-4-chlorophenyl)-1-(4-((5-methyl-1,3,4-oxadiazol-2-yl)methyl)piperidin-1-yl)prop-2-en-1-one]	1440
Cc1cnn(C2CCN(C(=O)/C=C/c3ccc(Cl)cc3Cn3nnc(C)n3)CC2)c1 [Example 28, (E)-3-(4-Chloro-2-((5-methyl-2H-tetrazol-2-yl)methyl)phenyl)-1-(4-(4-methyl-1H-pyrazol-1-yl)piperidin-1-yl)prop-2-en-1-one]	6.3
Cc1nnn(Cc2cc(Cl)ccc2/C=C/C(=O)N2CC[C@@H](c3nnc(C)o3)C[C@H]2C)n1 [Example 98, (E)-3-(4-Chloro-2-((5-methyl-2H-tetrazol-2-yl)methyl)phenyl)-1-((2R,4R)-2-methyl-4-(5-methyl-1,3,4-oxadiazol-2-yl)piperidin-1-yl)prop-2-en-1-one]	66
Cc1nnn(Cc2cc(C(F)(F)F)ccc2/C=C/C(=O)N2CCC(NCCCCc3c[nH]nn3)CC2)n1 [Example 155, (E)-1-(4-((4-(1H-1,2,3-Triazol-4-yl)butyl)amino)piperidin-1-yl)-3-(2-((5-methyl-2H-tetrazol-2-yl)methyl)-4-(trifluoromethyl)phenyl)prop-2-en-1-one]	13
COc1ccc(CN2CCN(C(=O)/C=C/c3ccc(Cl)cc3Cn3nnc(C)n3)[C@H](C)C2)nc1 [Example 123, (R,E)-3-(4-Chloro-2-((5-methyl-2H-tetrazol-2-yl)methyl)phenyl)-1-(4-((5-methoxypyridin-2-yl)methyl)-2-methylpiperazin-1-yl)prop-2-en-1-one]	3.5
Cc1ncn(C2CCN(C(=O)/C=C/c3ccc(Cl)cc3Cn3nnc(C)n3)CC2)n1 [Example 10, (E)-3-(4-Chloro-2-((5-methyl-2H-tetrazol-2-yl)methyl)phenyl)-1-(4-(3-methyl-1H-1,2,4-triazol-1-yl)piperidin-1-yl)prop-2-en-1-one]	40
C[C@@H]1CN(Cc2ccc(F)cc2)CCN1C(=O)/C=C/c1ccc(Cl)cc1Cc1nnn(C)n1 [Example 143, (R,E)-3-(4-Chloro-2-((2-methyl-2H-tetrazol-5-yl)methyl)phenyl)-1-(4-(4-fluorobenzyl)-2-methylpiperazin-1-yl)prop-2-en-1-one]	31
COC(=O)C1CCN(C(=O)/C=C/c2ccc(Cl)cc2Cn2nnc(C)n2)CC1 [Example 128, (E)-Methyl 1-(3-(4-chloro-2-((5-methyl-2H-tetrazol-2-yl)methyl)phenyl)acryloyl)piperidine-4-carboxylate]	28
CCS(=O)(=O)N1CCN(C(=O)/C=C/c2ccc(C(F)(F)F)cc2Cn2nnc(C)n2)CC1 [Example 102, (E)-1-(4-(Ethylsulfonyl)piperazin-1-yl)-3-(2-((5-methyl-2H-tetrazol-2-yl)methyl)-4-(trifluoromethyl)phenyl)prop-2-en-1-one]	53
COCC(=O)N(C)C1CCN(C(=O)/C=C/c2ccc(C(F)(F)F)cc2Cn2nnc(C)n2)CC1 [Example 84, (E)-2-Methoxy-N-methyl-N-(1-(3-(2-((5-methyl-2H-tetrazol-2-yl)methyl)-4-(trifluoromethyl)phenyl)acryloyl)piperidin-4-yl)acetamide]	8.1
Cc1cc(CN2CCN(C(=O)/C=C/c3ccc(C(F)(F)F)cc3Cn3nnc(C)n3)CC2)on1 [Example 101, (E)-3-(2-((5-Methyl-2H-tetrazol-2-yl)methyl)-4-(trifluoromethyl)phenyl)-1-(4-((3-methylisoxazol-5-yl)methyl)piperazin-1-yl)prop-2-en-1-one]	5
Cc1nnn(Cc2cc(Cl)ccc2/C=C/C(=O)N2CCC(c3ccc(F)cc3)CC2)n1 [Example 64, (E)-3-(4-Chloro-2-((5-methyl-2H-tetrazol-2-yl)methyl)phenyl)-1-(4-(4-fluorophenyl)piperidin-1-yl)prop-2-en-1-one]	31
Cc1nnn(Cc2cc(Cl)ccc2/C=C/C(=O)N2CCC(CNC(=O)CCc3cc(O)no3)CC2)n1 [Example 147, (E)-N-((1-(3-(4-Chloro-2-((5-methyl-2H-tetrazol-2-yl)methyl)phenyl)acryloyl)piperidin-4-yl)methyl)-3-(3-hydroxyisoxazol-5-yl)propanamide]	13
Cc1cc(CC(=O)N(C)C2CCN(C(=O)/C=C/c3ccc(C(F)(F)F)cc3Cn3nnc(C)n3)CC2)on1 [Example 95, (E)-N-Methyl-N-(1-(3-(2-((5-methyl-2H-tetrazol-2-yl)methyl)-4-(trifluoromethyl)phenyl)acryloyl)piperidin-4-yl)-2-(3-methylisoxazol-5-yl)acetamide]	25
Cc1nnn(Cc2cc(Cl)ccc2/C=C/C(=O)N2CCC(O)(Cn3cc(C(=O)N4CCOCC4)cn3)CC2)n1 [Example 14, (E)-3-(4-Chloro-2-((5-methyl-2H-tetrazol-2-yl)methyl)phenyl)-1-(4-hydroxy-4-((4-(morpholine-4-carbonyl)-1H-pyrazol-1-yl)methyl)piperidin-1-yl)prop-2-en-1-one]	12
Cc1nnn(Cc2cc(C(F)(F)F)ccc2/C=C/C(=O)N2CCN(C(=O)OC(C)(C)C)CC2)n1 [Example 68, (E)-tert-Butyl-4-(3-(2-((5-methyl-2H-tetrazol-2-yl)methyl)-4-(trifluoromethyl)phenyl)acryloyl)piperazine-1-carboxylate]	4.5
Cc1nnn(Cc2cc(C(F)(F)F)ccc2/C=C/C(=O)N2CCC(N(C)S(=O)(=O)C3CC3)CC2)n1 [Example 112, (E)-N-Methyl-N-(1-(3-(2-((5-methyl-2H-tetrazol-2-yl)methyl)-4-(trifluoromethyl)phenyl)acryloyl)piperidin-4-yl)cyclopropanesulfonamide]	14
Cc1nnn(Cc2cc(Cl)ccc2/C=C/C(=O)N2CCC(CCN(C)C(=O)c3c[nH]c(=O)o3)CC2)n1 [Example 148, (E)-N-(2-(1-(3-(4-Chloro-2-((5-methyl-2H-tetrazol-2-yl)methyl)phenyl)acryloyl)piperidin-4-yl)ethyl)-N-methyl-2-oxo-2,3-dihydrooxazole-5-carboxamide]	8.9
Cc1nnn(Cc2cc(Cl)ccc2/C=C/C(=O)N2CCN(Cc3coc(C)n3)C[C@H]2C)n1 [Example 62, (R,E)-3-(4-Chloro-2-((5-methyl-2H-tetrazol-2-yl)methyl)phenyl)-1-(2-methyl-4-((2-methyloxazol-4-yl)methyl)piperazin-1-yl)prop-2-en-1-one]	4.2
Cc1nnn(Cc2cc(C(F)(F)F)ccc2OCC(=O)N2CCC(c3noc(C)n3)CC2)n1 [Example 36, 1-(4-(5-Methyl-1,2,4-oxadiazol-3-yl)piperidin-1-yl)-2-(2-((5-methyl-2H-tetrazol-2-yl)methyl)-4-(trifluoromethyl)phenoxy)ethanone]	171

More lines, now with the values ahead:

IC50 [nM]	Compound
110	COC(=O)C1SCCN1C(=O)/C=C/c1ccc(Cl)cc1Cn1nnc(C)n1 (stereo not drawn) [Example 49.27, (E)-Methyl 3-(3-(4-chloro-2-((5-methyl-2H-tetrazol-2-yl)methyl)phenyl)acryloyl)thiazolidine-2-carboxylate]
4.6	Cc1nnn(Cc2cc(Cl)ccc2/C=C/C(=O)N2CCC(C(O)c3ccc(Cl)cc3)CC2)n1 (single isomer, unassigned) [Example 66b, ((R or S), E)-3-(4-Chloro-2-((5-methyl-2H-tetrazol-2-yl)methyl)phenyl)-1-(4-((4-chlorophenyl)(hydroxy)methyl)piperidin-1-yl)prop-2-en-1-one]
222	COCC1CCCN(C(=O)/C=C/c2ccc(Cl)cc2Cn2nnc(C)n2)C1 (stereo not drawn) [Example 49.17, (E)-3-(4-Chloro-2-((5-methyl-2H-tetrazol-2-yl)methyl)phenyl)-1-(3-(methoxymethyl)piperidin-1-yl)prop-2-en-1-one]
4.9	Cc1nnn(Cc2cc(Cl)ccc2/C=C/C(=O)N2CCCCC2c2nc(C(C)C)no2)n1 (single isomer, unassigned) [Example 30a, (R or S, E)-3-(4-Chloro-2-((5-methyl-2H-tetrazol-2-yl)methyl)phenyl)-1-(2-(3-isopropyl-1,2,4-oxadiazol-5-yl)piperidin-1-yl)prop-2-en-1-one]
85	Cc1nnn(Cc2cc(Cl)ccc2/C=C/C(=O)N2CCCC[C@H]2C)n1 [Example 49.14, (R,E)-3-(4-Chloro-2-((5-methyl-2H-tetrazol-2-yl)methyl)phenyl)-1-(2-methylpiperidin-1-yl)prop-2-en-1-one]
45	COCC1CCN(C(=O)/C=C/c2ccc(Cl)cc2Cn2nnc(C)n2)CC1 [Example 49.24, (E)-3-(4-Chloro-2-((5-methyl-2H-tetrazol-2-yl)methyl)phenyl)-1-(4-(methoxymethyl)piperidin-1-yl)prop-2-en-1-one]
20	Cc1nnn(Cc2cc(Cl)ccc2/C=C/C(=O)N2CCN(c3ncccn3)CC2)n1 [Example 49.1, (E)-3-(4-Chloro-2-((5-methyl-2H-tetrazol-2-yl)methyl)phenyl)-1-(4-(pyrimidin-2-yl)piperazin-1-yl)prop-2-en-1-one]
320	Cc1nnn(Cc2cc(Cl)ccc2/C=C/C(=O)N2CCC(F)C2)n1 (stereo not drawn) [Example 49.5, (E)-3-(4-Chloro-2-((5-methyl-2H-tetrazol-2-yl)methyl)phenyl)-1-(3-fluoropyrrolidin-1-yl)prop-2-en-1-one]
79	Cc1nnn(Cc2cc(Cl)ccc2/C=C/C(=O)N2CCC(O)C[C@H]2C)n1 (single isomer, unassigned) [Example 50b, (E)-3-(4-chloro-2-((5-methyl-2H-tetrazol-2-yl)methyl)phenyl)-1-((2R, 4R or 4S)-4-hydroxy-2-methylpiperidin-1-yl)prop-2-en-1-one]
